Assay results: patent publication US9565840B2, “Fibrotic non-human animal, and use thereof” (KYOTO UNIVERSITY, priority 2012, dated 2017)
Residues, ends and D or L forms follow the SMILES beside them. *: point of attachment. Cbz = O=C(OCc1ccccc1)*

System: IKKβ
Experiment: IKKβ level in fibroblasts from the skin of scleroderma patients, MG132 pre-treatment before IL-1β stimulation
Assay type: cell-based, human
Details: fibroblast from the skin of scleroderma patients; 2 μM MG132 for 2 hr before IL-1β (2.5 ng/mL, 60 min) stimulation; FIG. 11-3
Method: The skin of scleroderma patients (n=5) and healthy individual (n=5) was collected by biopsy, and fibroblast was prepared. The fibroblast was cultured in DMEM medium added with L-glutamine, penicillin/streptomycin and 10% FCS at 37° C., 5% CO2 concentration. After culture, nuclear protein was extracted from the fibroblast by using NE-PER nuclear protein cytoplasmic protein separation extraction kit (Thermo Scientific), and the p65 protein levels of the whole-cell lysate and nuclear extract were compared. RNA was isolated from the fibroblast by using RNA aqueous (trade mark) kit (Applied Biosytems (trade mark)), and the p65 mRNA level was compared using TaqMan (registered trade mark) Gene Expression Assays kit (Applied Biosytems (trade mark)). The NFκB activity of the fibroblast was measured by NFκB p65 Transcription Assay Kit (Thermo Scientific) and compared. […] Further, fibroblasts from the skin of scleroderma patients were stimulated for 60 min with IL-1β (2.5 ng/mL), and IKKβ and nuclear p65 protein amounts were compared. […] In addition, fibroblast from the skin of scleroderma patients was treated with 2 μM MG132 for 2 hr before the aforementioned IL-β stimulation, and the IKKβ level was measured.

CC(C)C[C@@H](C=O)NC(=O)[C@H](CC(C)C)NC(=O)[C@H](CC(C)C)NC(=O)OCc1ccccc1 [MG132] (Cbz-Leu-Leu-Leu-aldehyde)
IKKβ level: recovered the IKKβ level
